Data: US10927123B2, “Modulators of the beta-3 adrenergic receptor useful for the treatment or prevention of disorders related thereto” (Arena Pharmaceuticals, Inc., priority 2016, dated 2021)

Each molecule was assayed against Beta-3 Adrenergic Receptor (Homo sapiens (Human), UniProt P13945) (assay: HTRF cAMP antagonist assay (IC50 determination)). Details: CHO-K1 cells stably expressing recombinant receptor; antagonism of isoproterenol at EC90; cAMP readout.
Type: cell-based
How it was run: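 In this functional readout, recombinant CHO-K1 cells received compound, then isoproterenol at its EC90. After 1 h at room temperature, cAMP levels were determined by HTRF using an on-plate standard curve, and IC50 values were fitted.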

Sequence of Beta-3 Adrenergic Receptor (P13945 whole entry, species assumed): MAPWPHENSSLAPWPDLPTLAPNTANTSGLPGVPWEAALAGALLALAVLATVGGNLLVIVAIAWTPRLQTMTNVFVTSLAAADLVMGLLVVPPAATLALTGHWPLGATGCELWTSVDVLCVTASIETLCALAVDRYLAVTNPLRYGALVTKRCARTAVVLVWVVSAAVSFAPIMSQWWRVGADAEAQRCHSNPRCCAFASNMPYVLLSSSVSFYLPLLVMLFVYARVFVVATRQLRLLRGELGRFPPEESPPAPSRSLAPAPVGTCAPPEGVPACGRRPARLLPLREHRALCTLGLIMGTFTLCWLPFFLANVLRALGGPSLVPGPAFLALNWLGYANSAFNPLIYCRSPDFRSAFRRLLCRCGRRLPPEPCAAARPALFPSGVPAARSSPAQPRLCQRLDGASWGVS

IC50 | Structure (SMILES)
0.44 µM | CC(=O)NCCc1ccc(-c2cccc(S(=O)(=O)N3CCC4(CC3)C[C@@H](NC[C@H](O)COc3cccc(S(=O)(=O)C5(CO)CC5)c3)CO4)c2)cc1 [Compound 191, N-(2-(3′-((R)-3-((S)-2-hydroxy-3-(3-(1-(hydroxymethyl)cyclopropylsulfonyl)phenoxy)propylamino)-1-oxa-8-azaspiro[4.5]decan-8-ylsulfonyl)biphenyl-4-yl)ethyl)acetamide]
0.298 µM | Cc1c(Br)cccc1S(=O)(=O)N1CCC2(CC1)C[C@@H](NC[C@H](O)COc1cccc(S(=O)(=O)C3(CO)CC3)c1)CO2 [Compound 192, (S)-1-((R)-8-(3-bromo-2-methylphenylsulfonyl)-1-oxa-8-azaspiro[4.5]decan-3-ylamino)-3-(3-(1-(hydroxymethyl)cyclopropylsulfonyl)phenoxy)propan-2-ol]
0.0136 µM | Cc1cc(S(=O)(=O)N2CCC3(CC2)C[C@@H](NC[C@H](O)COc2cccc(S(=O)(=O)C4(CO)CC4)c2)CO3)ccc1Br [Compound 194, (S)-1-((R)-8-(4-bromo-3-methylphenylsulfonyl)-1-oxa-8-azaspiro[4.5]decan-3-ylamino)-3-(3-(1-(hydroxymethyl)cyclopropylsulfonyl)phenoxy)propan-2-ol]
0.0622 µM | Cc1c(-c2ccc(C3(N)CC3)cc2)cccc1S(=O)(=O)N1CCC2(CC1)C[C@H](NC[C@H](O)COc1cccc(S(=O)(=O)C3(CO)CC3)c1)CO2 [Compound 198, (S)-1-((S)-8-(4′-(1-aminocyclopropyl)-2-methylbiphenyl-3-ylsulfonyl)-1-oxa-8-azaspiro[4.5]decan-3-ylamino)-3-(3-(1-(hydroxymethyl)cyclopropylsulfonyl)phenoxy)propan-2-ol]
0.0724 µM | Cc1c(Br)cccc1S(=O)(=O)N1CCC2(CC1)C[C@H](NC[C@H](O)COc1cccc(S(=O)(=O)C3(CO)CC3)c1)CO2 [Compound 200, (S)-1-((S)-8-(3-bromo-2-methylphenylsulfonyl)-1-oxa-8-azaspiro[4.5]decan-3-ylamino)-3-(3-(1-(hydroxymethyl)cyclopropylsulfonyl)phenoxy)propan-2-ol]
1.11 µM | Cc1c(-c2ccc(CN)cc2)cccc1S(=O)(=O)N1CCC2(CC1)C[C@@H](NC[C@H](O)COc1cccc(S(=O)(=O)C3(CO)CC3)c1)CO2 [Compound 203, (S)-1-((R)-8-(4′-(aminomethyl)-2-methylbiphenyl-3-ylsulfonyl)-1-oxa-8-azaspiro[4.5]decan-3-ylamino)-3-(3-(1-(hydroxymethyl)cyclopropylsulfonyl)phenoxy)propan-2-ol]
0.0348 µM | COc1ccc(S(=O)(=O)N2CCC3(CC2)C[C@@H](NC[C@H](O)COc2cccc(S(=O)(=O)C4(CO)CC4)c2)CO3)cc1-c1ccc(CN)cc1 [Compound 208, (S)-1-((R)-8-(4′-(aminomethyl)-6-methoxybiphenyl-3-ylsulfonyl)-1-oxa-8-azaspiro[4.5]decan-3-ylamino)-3-(3-(1-(hydroxymethyl)cyclopropylsulfonyl)phenoxy)propan-2-ol]
0.026 µM | NCCc1ccc(-c2cccc(S(=O)(=O)N3CCC4(CC3)C[C@@H](NC[C@H](O)COc3cccc(S(=O)(=O)C5(CO)CC5)c3)CO4)c2)cc1 [Compound 212, (S)-1-((R)-8-(4′-(2-aminoethyl)biphenyl-3-ylsulfonyl)-1-oxa-8-azaspiro[4.5]decan-3-ylamino)-3-(3-(1-(hydroxymethyl)cyclopropylsulfonyl)phenoxy)propan-2-ol]

The next lines start with the molecule.

Structure (SMILES) | IC50
CC(=O)NCCc1ccc(-c2cccc(S(=O)(=O)N3CCC4(CC3)C[C@H](NC[C@H](O)COc3cccc(S(=O)(=O)C5(CO)CC5)c3)CO4)c2)cc1 [Compound 190, N-(2-(3′-((S)-3-((S)-2-hydroxy-3-(3-(1-(hydroxymethyl)cyclopropylsulfonyl)phenoxy)propylamino)-1-oxa-8-azaspiro[4.5]decan-8-ylsulfonyl)biphenyl-4-yl)ethyl)acetamide] | 0.0313 µM
COc1ccc(S(=O)(=O)N2CCC3(CC2)C[C@@H](NC[C@H](O)COc2cccc(S(=O)(=O)C4(CO)CC4)c2)CO3)cc1Br [Compound 193, (S)-1-((R)-8-(3-bromo-4-methoxyphenylsulfonyl)-1-oxa-8-azaspiro[4.5]decan-3-ylamino)-3-(3-(1-(hydroxymethyl)cyclopropylsulfonyl)phenoxy)propan-2-ol] | 0.0269 µM
O=S(=O)(c1cccnc1)N1CCC2(CC1)C[C@@H](NC[C@H](O)COc1cccc(S(=O)(=O)C3(CO)CC3)c1)CO2 [Compound 195, (S)-1-(3-(1-(hydroxymethyl)cyclopropylsulfonyl)phenoxy)-3-((R)-8-(pyridin-3-ylsulfonyl)-1-oxa-8-azaspiro[4.5]decan-3-ylamino)propan-2-ol] | 1.53 µM
Cc1cc(S(=O)(=O)N2CCC3(CC2)C[C@H](NC[C@H](O)COc2cccc(S(=O)(=O)C4(CO)CC4)c2)CO3)ccc1Br [Compound 196, (S)-1-((S)-8-(4-bromo-3-methylphenylsulfonyl)-1-oxa-8-azaspiro[4.5]decan-3-ylamino)-3-(3-(1-(hydroxymethyl)cyclopropylsulfonyl)phenoxy)propan-2-ol] | 0.0346 µM
Cc1c(-c2ccc(CN)cc2)cccc1S(=O)(=O)N1CCC2(CC1)C[C@H](NC[C@H](O)COc1cccc(S(=O)(=O)C3(CO)CC3)c1)CO2 [Compound 197, (S)-1-((S)-8-(4′-(aminomethyl)-2-methylbiphenyl-3-ylsulfonyl)-1-oxa-8-azaspiro[4.5]decan-3-ylamino)-3-(3-(1-(hydroxymethyl)cyclopropylsulfonyl)phenoxy)propan-2-ol] | 0.085 µM
COc1ccc(S(=O)(=O)N2CCC3(CC2)C[C@@H](NC[C@H](O)COc2cccc(S(=O)(=O)C4(CO)CC4)c2)CO3)cc1-c1ccc(C2(N)CC2)cc1 [Compound 199, (S)-1-((R)-8-(4′-(1-aminocyclopropyl)-6-methoxybiphenyl-3-ylsulfonyl)-1-oxa-8-azaspiro[4.5]decan-3-ylamino)-3-(3-(1-(hydroxymethyl)cyclopropylsulfonyl)phenoxy)propan-2-ol] | 0.025 µM
COc1ccc(S(=O)(=O)N2CCC3(CC2)C[C@H](NC[C@H](O)COc2cccc(S(=O)(=O)C4(CO)CC4)c2)CO3)cc1Br [Compound 201, (S)-1-((S)-8-(3-bromo-4-methoxyphenylsulfonyl)-1-oxa-8-azaspiro[4.5]decan-3-ylamino)-3-(3-(1-(hydroxymethyl)cyclopropylsulfonyl)phenoxy)propan-2-ol] | 0.0418 µM
O=S(=O)(c1cccnc1)N1CCC2(CC1)C[C@H](NC[C@H](O)COc1cccc(S(=O)(=O)C3(CO)CC3)c1)CO2 [Compound 202, (S)-1-(3-(1-(hydroxymethyl)cyclopropylsulfonyl)phenoxy)-3-((S)-8-(pyridin-3-ylsulfonyl)-1-oxa-8-azaspiro[4.5]decan-3-ylamino)propan-2-ol] | 0.346 µM
Cc1c(-c2ccc(C3(N)CC3)cc2)cccc1S(=O)(=O)N1CCC2(CC1)C[C@@H](NC[C@H](O)COc1cccc(S(=O)(=O)C3(CO)CC3)c1)CO2 [Compound 204, (S)-1-((R)-8-(4′-(1-aminocyclopropyl)-2-methylbiphenyl-3-ylsulfonyl)-1-oxa-8-azaspiro[4.5]decan-3-ylamino)-3-(3-(1-(hydroxymethyl)cyclopropylsulfonyl)phenoxy)propan-2-ol] | 0.504 µM
CCOc1ccc(-c2ccc(CN)cc2)cc1S(=O)(=O)N1CCC2(CC1)C[C@H](NC[C@H](O)COc1cccc(S(=O)(=O)CC(N)=O)c1)CO2 [Compound 205, 2-(3-((S)-3-((S)-8-(4′-(aminomethyl)-4-ethoxybiphenyl-3-ylsulfonyl)-1-oxa-8-azaspiro[4.5]decan-3-ylamino)-2-hydroxypropoxy)phenylsulfonyl)acetamide] | 0.0922 µM
COc1c(-c2ccc(CN)cc2)cccc1S(=O)(=O)N1CCC2(CC1)C[C@H](NC[C@H](O)COc1cccc(S(=O)(=O)CC(N)=O)c1)CO2 [Compound 206, 2-(3-((S)-3-((S)-8-(4′-(aminomethyl)-2-methoxybiphenyl-3-ylsulfonyl)-1-oxa-8-azaspiro[4.5]decan-3-ylamino)-2-hydroxypropoxy)phenylsulfonyl)acetamide] | 0.403 µM
COc1ccc(S(=O)(=O)N2CCC3(CC2)C[C@H](NC[C@H](O)COc2cccc(S(=O)(=O)C4(CO)CC4)c2)CO3)cc1-c1ccc(CN)cc1 [Compound 207, (S)-1-((S)-8-(4′-(aminomethyl)-6-methoxybiphenyl-3-ylsulfonyl)-1-oxa-8-azaspiro[4.5]decan-3-ylamino)-3-(3-(1-(hydroxymethyl)cyclopropylsulfonyl)phenoxy)propan-2-ol] | 0.0511 µM
CCOc1ccc(-c2ccc(CN)cc2)cc1S(=O)(=O)N1CCC2(CC1)C[C@H](NC[C@H](O)COc1cccc(S(C)(=O)=O)c1F)CO2 [Compound 209, (S)-1-((S)-8-(4′-(aminomethyl)-4-ethoxybiphenyl-3-ylsulfonyl)-1-oxa-8-azaspiro[4.5]decan-3-ylamino)-3-(2-fluoro-3-(methylsulfonyl)phenoxy)propan-2-ol] | 0.00879 µM
NCCc1ccc(-c2cccc(S(=O)(=O)N3CCC4(CC3)C[C@H](NC[C@H](O)COc3cccc(S(=O)(=O)C(F)(F)CO)c3)CO4)c2)cc1 [Compound 210, (S)-1-((S)-8-(4′-(2-aminoethyl)biphenyl-3-ylsulfonyl)-1-oxa-8-azaspiro[4.5]decan-3-ylamino)-3-(3-(1,1-difluoro-2-hydroxyethylsulfonyl)phenoxy)propan-2-ol] | 0.0224 µM
NCCc1ccc(-c2cccc(S(=O)(=O)N3CCC4(CC3)C[C@H](NC[C@H](O)COc3cccc(S(=O)(=O)C5(CO)CC5)c3)CO4)c2)cc1 [Compound 211, (S)-1-((S)-8-(4′-(2-aminoethyl)biphenyl-3-ylsulfonyl)-1-oxa-8-azaspiro[4.5]decan-3-ylamino)-3-(3-(1-(hydroxymethyl)cyclopropylsulfonyl)phenoxy)propan-2-ol] | 0.0262 µM
